Test results from publication PMC10442857, “Cellular Uptake of a Fluorescent Ligand Reveals Ghrelin O-Acyltransferase Interacts with Extracellular Peptides and Exhibits Unexpected Localization for a Secretory Pathway Enzyme” (ACS Chemical Biology, 2023).
Read-outs that look alike come from different tables or passages of the source. Square brackets hold non-standard residues; d marks the D form. Peptide text beside a SMILES is read from it. * marks the point of attachment. Octanoyl = CCCCCCCC(=O)*; Dap = NC[C@H](N)C(=O)O

Columns and labels:
[1] = target: human ghrelin O-acyltransferase (hGOAT) of the hGOAT inhibition assays (human) (UniProt Q96T53)
[2] = target: T1, hGOAT (Homo sapiens, UniProt Q96T53); experiment: hGOAT inhibition assay (octanoylation of GSSFLCAcDan by Sf9 membrane fraction expressing hGOAT, HPLC fluorescence); type: biochemical; conditions: read-out: IC50 against hGOAT
T1 construct: 3xHA (C); FLAG (C); His6 (C); made in house; host or cells: Sf9 insect cells (baculovirus), crude membrane fraction
T1 sequence (Q96T53 1-435): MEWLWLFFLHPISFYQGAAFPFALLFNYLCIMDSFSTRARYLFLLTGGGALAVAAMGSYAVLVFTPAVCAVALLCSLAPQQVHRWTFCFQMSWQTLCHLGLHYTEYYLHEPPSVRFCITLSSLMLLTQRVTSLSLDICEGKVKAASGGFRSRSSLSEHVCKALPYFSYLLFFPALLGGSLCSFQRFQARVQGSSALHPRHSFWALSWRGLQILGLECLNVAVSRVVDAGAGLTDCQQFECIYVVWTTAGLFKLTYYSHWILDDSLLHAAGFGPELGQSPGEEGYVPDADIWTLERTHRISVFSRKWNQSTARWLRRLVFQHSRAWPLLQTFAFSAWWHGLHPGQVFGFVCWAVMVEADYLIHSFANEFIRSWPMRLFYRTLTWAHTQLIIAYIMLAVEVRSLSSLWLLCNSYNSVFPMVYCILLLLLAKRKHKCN
Method: Assays were performed using previously reported protocols,[57],[58] as described in the Supporting Information. […]
hGOAT inhibition assays. Assays were performed using previously reported protocols.2-3 For each assay, membrane fraction from Sf9 cells expressing hGOAT was thawed on ice and homogenized by passage through an 18-gauge needle 10 times. Assays were performed with 50 µg of membrane protein, as determined by Bradford assay. Membrane fraction was pre-incubated with 1 µM methyl […]
arachidonyl fluorophosphonate (MAFP) and unlabeled peptide inhibitor or vehicle as indicated in 50 mM HEPES pH 7.0 for 30 minutes at room temperature prior to reaction initiation.4 All reactions were initiated by the addition of 1.5 µM GSSFLCAcDan and 300 µM octanoyl CoA.
Reactions were incubated for 30 minutes at room temperature under foil. All assays were stopped with the addition of 50 µL of 20% acetic acid in isopropanol, and solutions were clarified by protein precipitation with 16.7 µL of 20% trichloroacetic acid, followed by centrifugation (1,000 x g, 2 minutes). The supernatant was then analyzed using reverse-phase HPLC with fluorescence detection as previously described.2-3 Peak integrations for both substrate and product peaks were calculated using Chemstation for LC (Agilent Technologies). Data reported are the average of three independent determinations, with error reported as standard deviation.
For determination of IC50 values, the percent activity at each inhibitor concentration was calculated from HPLC integration data using equations 1 and 2: To determine an IC50 value for a given inhibitor, the plot of % activity versus [inhibitor] was fit to equation 3, with % activity0 denoting hGOAT activity in the presence of the vehicle alone. All reported IC50 values represent the average of a minimum of three independent trials.
(1) % activity = % peptide acylation in presence of inhibitor
% peptide acylation in absence of inhibitor
(2) % peptide octanoylation = Fluorescence of acylated peptide
Total peptide fluorescence (acylated and non-acylated)
(3) % activity = % activity * (1- [inhibitor] )

[3] = target: T2, GHSR (GHS-R1a) (Homo sapiens, UniProt Q92847); design: method as in Charron et al.[22]; conditions: ref Charron et al.[22]; read-out: IC50 against GHSR; cited from earlier work
T2 construct: expressed in transfected cells; host or cells: HEK 293 cells transfected with GHS-R1a (membrane suspension)
Target sequence in this assay (Q92847 whole entry, species assumed): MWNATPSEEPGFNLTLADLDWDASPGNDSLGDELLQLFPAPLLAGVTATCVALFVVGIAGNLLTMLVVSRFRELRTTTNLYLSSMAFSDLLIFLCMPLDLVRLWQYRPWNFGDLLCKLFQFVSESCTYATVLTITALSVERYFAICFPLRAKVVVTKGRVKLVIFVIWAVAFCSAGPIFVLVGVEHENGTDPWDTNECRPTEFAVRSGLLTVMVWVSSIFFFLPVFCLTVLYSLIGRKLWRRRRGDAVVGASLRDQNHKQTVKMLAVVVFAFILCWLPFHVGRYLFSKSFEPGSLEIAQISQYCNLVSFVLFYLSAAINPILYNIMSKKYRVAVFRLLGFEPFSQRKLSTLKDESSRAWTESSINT

[4] = target: T2, GHSR (GHS-R1a); experiment: biochemical; type: binding; conditions: lower limit from test at 100 µM; read-out: IC50 against GHSR
Method: Peptide binding affinity for the ghrelin receptor was determined using a competitive radioligand-displacement binding assay,[22] with details provided in the Supporting Information. […]
GHSR receptor binding assays. Peptide binding affinity for the ghrelin receptor was determined using a competitive radioligand-displacement binding assay.1 Assays were performed using GHS-R1a transfected HEK 293 cells as the receptor source and human His[125I]-ghrelin(1−28) (PerkinElmer Inc. NEX388010UC ) as the radioligand. Human ghrelin(1−28) was used as a reference to ensure the validity of the results. A suspension of membrane from HEK 293/GHS-R1a cells (100,000 cells per assay tube) were incubated with ghrelin(1−8) peptide analogues (at […]
ghrelin (15 pM per assay tube) in binding buffer (25 mM HEPES, 5 mM magnesium chloride, 1 mM calcium chloride, 2.5 mM EDTA, and 0.4% BSA, pH 7.4). The resulting suspension was incubated for 20 min under shaking (550 rpm) at 37 °C. Unbound [ 125I]-ghrelin was removed and the amount of [ 125I]-ghrelin bound to the membranes was measured by γ counter. IC 50 values were determined by nonlinear regression analysis to fit a four-parameter dose−response curve using Prism 6 (version 6.0c). All binding assays were performed in triplicate. […]

[5] = average of three independent trials ± one standard deviation

Compound | inhibition of hGOAT activity (IC50 against hGOAT) [1] [nM] | IC50 [3] [nM] | IC50 [4] [nM] | also measured
ligand 3, H-GS-(6FN-Dap)-FLSPY-NH2 (peptide) | > 100000 |  |  | 
CCCCCCCC(=O)NC[C@H](NC(=O)[C@H](CO)NC(=O)CN)C(=O)N[C@@H](Cc1ccccc1)C(=O)N[C@@H](CC(C)C)C(=O)N[C@@H](CO)C(=O)N1CCC[C@H]1C(=O)N[C@@H](Cc1ccc(O)cc1)C(N)=O [ligand 2, H-GS-(C8-Dap)-FLSPY-NH2] (H-GS[Dap](Octanoyl)FLSPY-NH2) |  | 65 |  | IC50 [2, 5]: 64 ± 21 nM
H-Aib-S-(6FN-Dap)-FLSPY-NH2 [ligand 6] |  | 9.2 |  | 
CC(C)C[C@H](NC(=O)[C@H](Cc1ccccc1)NC(=O)[C@H](CN)NC(=O)[C@H](CO)NC(=O)C(C)(C)N)C(=O)N[C@@H](CO)C(=O)N1CCC[C@H]1C(=O)N[C@@H](Cc1ccc(O)cc1)C(N)=O [ligand 4, H-Aib-S-Dap-FLSPY-NH2] (HELM PEPTIDE1{[Aib].S.[NC[C@H](N[*:1])C(=O)[*:2]].F.L.S.P.Y.[am]}$$$$V2.0) |  |  | ≥ 100000 | IC50 [2]: > 100000 nM
CC(C)C[C@H](NC(=O)[C@H](Cc1ccccc1)NC(=O)[C@H](CN)NC(=O)[C@H](CO)NC(=O)C1CCNCC1)C(=O)N[C@@H](CO)C(=O)N1CCC[C@H]1C(=O)N[C@@H](Cc1ccc(O)cc1)C(N)=O [ligand 5, H-Inp-S-Dap-FLSPY-NH2] (HELM PEPTIDE1{[O=C(C1CCNCC1)[*:2]].S.[NC[C@H](N[*:1])C(=O)[*:2]].F.L.S.P.Y.[am]}$$$$V2.0) |  |  | ≥ 100000 | IC50 [2]: > 100000 nM
ligand 11, H-GS-(C8-Dap)-FLSPT-NH2 (peptide) | 27 |  |  | 
CC(C)C[C@H](NC(=O)[C@H](Cc1ccc2ccccc2c1)NC(=O)[C@H](CN)NC(=O)[C@H](CO)NC(=O)CN)C(=O)N[C@@H](CO)C(=O)N1CCC[C@H]1C(=O)N[C@H](C(N)=O)[C@@H](C)O [ligand 13, H-GS-Dap-Nal-2-LSPT-NH2] (HELM PEPTIDE1{G.S.[NC[C@H](N[*:1])C(=O)[*:2]].[O=C([C@H](Cc1ccc2ccccc2c1)N[*:1])[*:2]].L.S.P.T.[am]}$$$$V2.0) |  |  | ≥ 100000 | 
CCCCCCCC(=O)NC[C@H](NC(=O)[C@H](CO)NC(=O)CN)C(=O)N[C@@H](Cc1ccccc1)C(=O)N[C@@H](CC(C)C)C(=O)N[C@@H](CO)C(=O)N1CCC[C@H]1C(=O)N[C@H](C(N)=O)[C@@H](C)O [ligand 11, H-GS-(C8-Dap)-FLSPT-NH2] (H-GS[Dap](Octanoyl)FLSPT-NH2) |  | 3.3 |  | IC50 [2, 5]: 27 ± 8 nM
ligand 10, H-GS-(C8-Dap)-FLSPN-NH2 (peptide) | 59 |  |  | 
ligand 9, H-GS-(C8-Dap)-FLSPE-NH2 (peptide) | 580 |  |  | 
